What was measured:
ATF4 = ATF4 expression inhibition assay (ATF4 luciferase reporter); format: cell-based; conditions: Homo sapiens, HEK-293T; HEK293T cells carrying the ATF4 luciferase reporter, 100 nM thapsigargin (Tg), 3 hours; read-out: ATF4 inhbition IC50
Procedure: The ATF4 reporter was prepared by fusing the human full length 5′UTR of ATF4 (NCBI Accession No. BC022088.2) upstream of the firefly luciferase coding sequence lacking the initiator methionine. The fused sequence was cloned into pLenti-EF1a-C-Myc-DDK-IRES-Puro cloning vector (Origen # PS 100085) using standard methods. Virus production was carried out by using Lenti-X™ Packaging Single Shots Protocol (Clonetech #631276). Viral particles were used to transduce HEK293T cells (ATCC # CRL-3216, ATCC Manassas, Va.), which were subsequently selected with puromycin to generate stable cell line. Cells were maintained at 37° C. and 5% CO2 in DMEM-F12 (Hyclone # SH30023.02) supplemented with 10% heat-inactivated fetal bovine serum (Gibco #16000-044), 2 mM L-glutamine (Gibco #25030-081), 100 U/ml penicillin, and 100 μg/ml streptomycin (Gibco #15140-122).
HEK293T cells carrying the ATF4 luciferase reporter were plated on 96-well plates (Nunc) at 10,000 cells per well. Cells were treated two days after seeding with 100 nM thapsigargin (Tg) (Sigma-Aldrich # T9033) in the presence of different concentrations of selected compounds ranging from 1 nM to 10 μM. Cells without treatment or cells treated with Tg alone were used as controls. Assay plates containing cells were incubated for 3 hours at 37° C.
Luciferase reactions were performed using Luciferase Assay System (Promega # E1501) as specified by the manufacturer. Luminescence was read with an integration time of 1 s and a gain of 110 using a Cytation-5 multi-mode microplate reader (BioTek). Relative luminescence units were normalized to Tg treatment (0% inhibition) and untreated cells (100% inhibition) and the percentage of ATF4 inhibition was calculated.
Accordingly, inhibition of ATF4 expression as a result of the test compound indicates suppression of the ISR pathway.

[1] = system: Chinese hamster ovary (CHO) cells; test: Protein translation assay (puromycin labelling, western blot); format: cell-based; conditions: 2 hours, media alone = 100%; for activity at 1 µM: Cricetulus griseus, unstressed CHO cells (without Tg), 1 μM test compound, read-out: % Protein synthesis relative to untreated (1 μM test compound); for % Recovery of protein synthesis (1 μM test compound): stressed CHO cells, 300 nM Tg, Tg alone = 0%
Procedure: Chinese hamster ovary (CHO) cells were maintained at 37° C. and 5% C02 in Dulbecco's Modified Eagle's Media (DMEM) supplemented with 10% fetal bovine serum, 2 mM L-glutamine, 100 U/ml penicillin, and 100 μg/ml streptomycin. After reaching 80% of confluence, cells were detached and seeded on 6 well plates in complete media, allowed to recover overnight and treated for 2 hours with 1 μM of the test compound (to assess protein synthesis levels in unstressed condition), or for 2 hours with 300 nM Tg in the presence of 1 μM of the test compound (to assess the recovery of protein synthesis in a stressed condition). Cells with Tg alone were used as controls.
After the 2 hours treatments, media were replaced by adding 10 μg/ml puromycin (Sigma Aldrich # P8833) in complete media for 30 min. Media were removed and cells were lysed with SDS-PAGE lysis buffer. Lysates were transferred to 1.5 ml tubes and sonicated for 3 min and total protein amount were quantified using BCA Protein Assay Kit (Pierce). Equal amount of protein (30 μg) was loaded on SDS-PAGE gels. Proteins were transferred onto 0.2 μm PVDF membranes (BioRad) and probed with primary antibodies diluted in Tris-buffered saline supplemented with 0.1% Tween 20 (Merck # S6996184 505) and 3% bovine serum albumin (Rockland # BSA-50).
Puromycin (12D10) (Merck # MABE343) and β-actin (Sigma Aldrich # A5441) antibodies were used as primary antibody. A HRP-conjugated secondary antibody (Rockland) was employed to detect immune-reactive bands using enhanced chemiluminescence (ECL Western Blotting Substrate, Pierce). Quantification of protein bands was done by densitometry using ImageJ software.
Percent increase of protein synthesis in unstressed cells (without Tg treatment) in the presence of media alone or certain test compounds is shown in Table 3. The percentage levels were normalized to the media alone condition, which correspond to 100% protein synthesis.
Percent recovery of protein synthesis in stressed cells (with Tg treatment) due to the test compounds at 1 μM is also shown in Table 3. The levels were normalized to the media alone and Tg alone conditions, which correspond to 100% and 0% respectively.

`O=C(NC1CCN(CC(O)COc2ccc(Cl)c(F)c2)C1)c1cc2cc(Cl)ccc2o1` (stereo not drawn) [Compound 98, 5-chloro-N-(1-(3-(4-chloro-3-fluorophenoxy)-2-hydroxypropyl)pyrrolidin-3-yl)benzofuran-2-carboxamide] was tested, and the IC50 (ATF4) was over 100 nM, the activity at 1 µM [1] was 167% and the “% Recovery of protein synthesis (1 μM test compound)” value (“% Recovery of protein synthesis” below) [1] was 142.63%.

With `O=C(COc1ccc(Cl)c(F)c1)NC1CCN(CC(O)COc2ccc(Cl)c(F)c2)C1` (stereo not drawn) [Compound 99, 2-(4-chloro-3-fluorophenoxy)-N-(1-(3-(4-chloro-3-fluorophenoxy)-2-hydroxypropyl)pyrrolidin-3-yl)acetamide] the IC50 (ATF4) was over 100 nM, the activity at 1 µM [1] was 67.7% and the “% Recovery of protein synthesis” value [1] was 0.00%.

For `O=C(COc1ccc(Cl)c(F)c1)NC1CCN(CCCOc2ccc(Cl)c(F)c2)C1` (stereo not drawn) [Compound 100, 2-(4-chloro-3-fluorophenoxy)-N-(1-(3-(4-chloro-3-fluorophenoxy)propyl)pyrrolidin-3-yl)acetamide], the IC50 (ATF4) was over 100 nM, the activity at 1 µM [1] was 69.1% and the “% Recovery of protein synthesis” value [1] was 0.00%.

`O=C(NC1CCN(CCCOc2ccc(Cl)c(F)c2)C1)c1cc2cc(Cl)ccc2o1` (stereo not drawn) [Compound 101, 5-chloro-N-(1-(3-(4-chloro-3-fluorophenoxy)propyl)pyrrolidin-3-yl)benzofuran-2-carboxamide] was tested, and the IC50 (ATF4) was over 100 nM, the activity at 1 µM [1] was 93.2% and the “% Recovery of protein synthesis” value [1] was 86.10%.

Source: patent publication US20200270232A1, “INHIBITORS OF INTEGRATED STRESS RESPONSE PATHWAY” (Praxis Biotech LLC, priority 2019, published 2020)
